According to patent publication US12492403B2, “Aptamers and the use thereof in the treatment of cancer” (FUNDACIÓN PARA LA INVESTIGACIÓN BIOMÉDICA DEL HOSPITAL …, priority 2018, dated 2025):

What was measured:
MDA-MB-468 cells = experiment: MTT activity assay, aptamers transfected with Lipofectamine 2000; type: cell-based, human; conditions: MDA-MB-468, MTT activity at 48 hours, 0 to 500 nM
Description: FIGS. 8A-8C. Effect of aptamer apMNKQ2 on MTT activity of breast cell lines. MCF7, MDA-MB-231, and MDA-MB-468 cells were seeded in 96-well plates at a density of 10^4 cells/well. […] The graphs represent the means±SEM of 3 independent experiments (*p<0.05, **p<0.01, and ***p<0.001 with respect to the control AT).
The Lipofectamine™ 2000 system (Invitrogen, USA) was used to treat cells with the different aptamers. To prepare the DNA-lipofectamine complex, lipofectamine and DNA were separately diluted in opti-MEM (Gibco, USA) and left to incubate at room temperature for 5 minutes. They were then mixed to form lipofectamine-DNA complexes and incubated for 20 minutes at room temperature. Finally, the mixture was added to the cells that had been washed twice with antibiotic-free medium to prevent the interference thereof with lipofectamine. The cells were incubated at 37° C. for 5 hours, after which the reagent was removed and a complete medium was added.
MTT activity. The cells were seeded in 96-well plates and after having been transfected, the culture medium was removed and 100 μL/well of MTT at 1 mg/ml in culture medium were added. […] After 48 hours, the reduction of MTT was determined by means of spectrophotometry in Infinite F200 (TECAN, Switzerland) at 540 nm.
The results were expressed as the percentage of viability with respect to the control or in absorbance units.

DNase I = experiment: Stability in the presence of DNase I; type: in vitro ADME, human; conditions: 1 unit of DNase I, 5 minutes at 37° C.
Description: FIGS. 7A and 7B. Stability of apMNKQ2. Chip Experion™ DNA 1K Analysis Kit (BioRad, USA) for analyzing the stability of apMNKQ2 with 1 unit, 0.5 units, and 0.25 units of DNase I (FIG. 7A). In FIG. 7B, the degradation of aptamer apMNKQ2 in human plasma at 0, 6, 16, 24, 48, and 72 hours is depicted.
In the context of the present invention, the term “incubated” is understood to mean being subjected to the assay conditions, specifically to incubation in a buffer with 10 mM Tris HCl, pH 7.5, 2.5 mM MgCl2, and 0.1 mM CaCl2).
In the context of the present invention, the term “1 unit of DNase I” is understood to mean the amount of DNase I which completely degrades 1 μg of DNA in 10 minutes at 37° C.
In the context of the present invention, “DNase I” is understood to mean the deoxyribonuclease-I protein encoded by the human DNASE1 gene. […]
The previously structured aptamer apMNKQ2 (1 μg) was incubated in the presence of 1 unit, 0.5 units, and 0.25 units of the enzyme DNase I (ThermoFisher Scientific, USA) in the buffer supplied by the company (10 mM Tris HCl, pH 7.5, 2.5 mM MgCl2, 0.1 mM CaCl2)) for 5 minutes at 37° C., and the reaction was then stopped by adding 1 μL of 50 mM EDTA (ThermoFisher Scientific, USA) and heating at 65° C. for 10 minutes. […] The samples were analyzed using an Experion™ DNA 1K Analysis Kit chip (BioRad, USA). […]

caspase 3 = experiment: Caspase 3 activity by western blot of PARP and α-spectrin fragments; type: cell-based, human; conditions: MCF7, MDA-MB-231, and MDA-MB-468 cells, 24 hours post-transfection
Text: FIGS. 11A & 11B. Effect of apMNKQ2 on caspase 3 activity by means of PARP and α-spectrin substrates in breast cell lines. Immunodetection with specific antibodies by means of 12% SDS-PAGE of “cleaved” PARP (FIG. 11A) and α-spectrin (FIG. 11B) for detecting the proteolytic activity of caspase 3 after the transfection of lines MCF7, MDA-MB-231, and MDA-MB-468 with apMNKQ2 and the control aptamer AT. The activity of this protease gives rise to characteristic proteolysis patterns with specific fragments of 89 kDa for PARP and 150 and 120 kDa for α-spectrin.
Caspase 3 activity was assessed by means of western blot with two endogenous substrates of this protein: • the enzyme poly ADP-ribose (PARP), fractionated in late apoptotic stages, using a specific antibody that only recognizes the PARP fragment processed by caspase 3. • the protein α-spectrin, with an antibody capable of recognizing the complete form and the fragments obtained after being broken down by caspase 3. Colony Formation Assays
Similarly, to verify that apMNKQ2 is capable of increasing apoptosis in the cell lines, the activity of caspase 3, a protease activated in apoptosis, was assessed. The western blot study was performed on two endogenous substrates of caspase 3: the enzyme poly ADP-ribose (PARP), fractionated in late apoptotic stages, and the protein α-spectrin. […]

Substance: 5′TGGGGTGGGCGGGCGGGGGTGGGGGTGGT-3′ (DNA, backbone and methylation of C not given here; further chemistry not fully specified) [apMNKQ2]
- GI50 (MDA-MB-468 cells): 19 nM
- stability (DNase I): 100%
- caspase 3 activity (proteolysis fragments of PARP and α-spectrin) (caspase 3): apoptotic effect
